The record followed here is patent publication US20240368092A1, “2,4-Dihydro-3H-1,2,4-Triazol-3-One P2X7 Antagonists” (Breye Therapeutics ApS, priority 2021, published 2024).

Holding throughout (type): cell-based
In one experiment the target is T1, human P2X7 channel (Homo sapiens, UniProt Q99572).
T1 construct: expressed in transfected cells; host or cells: HEK-293
T1 sequence (Q99572 1-595): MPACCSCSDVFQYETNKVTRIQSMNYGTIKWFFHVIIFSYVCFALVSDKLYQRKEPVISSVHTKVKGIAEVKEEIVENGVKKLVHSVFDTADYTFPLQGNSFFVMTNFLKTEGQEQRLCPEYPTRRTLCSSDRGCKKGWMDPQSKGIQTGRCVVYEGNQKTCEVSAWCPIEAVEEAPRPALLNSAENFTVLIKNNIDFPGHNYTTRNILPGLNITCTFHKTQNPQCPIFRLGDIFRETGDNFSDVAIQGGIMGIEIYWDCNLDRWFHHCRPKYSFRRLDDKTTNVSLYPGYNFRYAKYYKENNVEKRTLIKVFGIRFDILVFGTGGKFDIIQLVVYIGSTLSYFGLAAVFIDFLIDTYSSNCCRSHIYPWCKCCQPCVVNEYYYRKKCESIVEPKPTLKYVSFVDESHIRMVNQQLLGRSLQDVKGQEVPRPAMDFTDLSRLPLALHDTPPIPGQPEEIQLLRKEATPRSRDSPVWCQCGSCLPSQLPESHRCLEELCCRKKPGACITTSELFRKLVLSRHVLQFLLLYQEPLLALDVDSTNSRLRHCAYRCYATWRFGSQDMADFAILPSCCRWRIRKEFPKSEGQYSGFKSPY
Description: human P2X7 channel assay by automated patch-clamp (QPatch 16X). Conditions: HEK-293 cells expressing P2X7; current evoked by 100 microM BzATP; whole-cell, held at -80 mV; read-out: human Q-Patch (activity range). A digest of the protocol: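 Whole-cell patch clamp on HEK-293 cells expressing P2X7, room temperature, held at −80 mV, CsF internal and NaCl external (pH 7.4). Currents evoked by 100 microM BzATP, four controls then with compound at 1, 10, 100 and 1000 nM; peak inward current normalized, IC50 from dose-response fit, reported as potency bins.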
A general note: In patch-clamp work, channel activity is measured electrically.

Another experiment concerns the target T2, humanP2X7 (Homo sapiens, UniProt Q99572).
T2 construct: expressed in transfected cells; host or cells: HEK-293
T2 sequence (Q99572 1-595): T1 sequence (Q99572 1-595)
Description: P2X7 channel calcium-influx assay (Fluo-8, FLIPR TETRA), human P2X7. Conditions: HEK-293 cells stably transfected with P2X7; Bz-ATP at EC80; low divalent cation buffer; read-out: humanP2X7 (activity range). In a few lines:
(§1)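 HEK-293 cells stably expressing the respective species' P2X7, Fluo-8 NW loaded 1 h at RT in low divalent buffer (0.3 mM Ca2+, 0 mM Mg2+). Compound preincubated 5 min, then Bz-ATP at EC80; FLIPR calcium influx over 3 min. IC50 from % inhibition relative to reference antagonist A438079, reported as potency bins.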

Another experiment has as its target T3, mouseP2X7 (Mus musculus, UniProt Q9Z1M0).
T3 construct: expressed in transfected cells; host or cells: HEK-293
T3 sequence (Q9Z1M0 1-595): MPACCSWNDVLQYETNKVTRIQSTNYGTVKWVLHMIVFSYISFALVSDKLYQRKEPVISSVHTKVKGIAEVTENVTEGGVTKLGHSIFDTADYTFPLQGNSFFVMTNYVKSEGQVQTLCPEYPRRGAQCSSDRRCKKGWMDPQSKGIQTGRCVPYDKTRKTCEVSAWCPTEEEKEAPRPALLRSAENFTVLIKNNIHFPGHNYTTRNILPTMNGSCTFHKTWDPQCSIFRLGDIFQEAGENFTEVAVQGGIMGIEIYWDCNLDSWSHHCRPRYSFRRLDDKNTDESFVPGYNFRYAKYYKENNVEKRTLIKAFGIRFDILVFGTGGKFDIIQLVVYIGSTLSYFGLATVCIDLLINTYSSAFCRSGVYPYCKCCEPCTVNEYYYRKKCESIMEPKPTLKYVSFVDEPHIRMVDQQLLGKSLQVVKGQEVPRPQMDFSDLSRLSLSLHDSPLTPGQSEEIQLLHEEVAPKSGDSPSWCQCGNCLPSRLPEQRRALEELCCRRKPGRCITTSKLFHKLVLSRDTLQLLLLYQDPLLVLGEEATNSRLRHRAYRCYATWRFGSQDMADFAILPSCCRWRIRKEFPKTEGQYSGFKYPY
Description: P2X7 channel calcium-influx assay (Fluo-8, FLIPR TETRA), mouse P2X7. To be noted: HEK-293 cells stably transfected with P2X7; Bz-ATP at EC80; low divalent cation buffer; read-out: mouseP2X7 (activity range). A digest of the protocol:
as §1

In another experiment the target is T4, ratP2X7 (Rattus norvegicus, UniProt Q64663).
T4 construct: expressed in transfected cells; host or cells: HEK-293
T4 sequence (Q64663 1-595): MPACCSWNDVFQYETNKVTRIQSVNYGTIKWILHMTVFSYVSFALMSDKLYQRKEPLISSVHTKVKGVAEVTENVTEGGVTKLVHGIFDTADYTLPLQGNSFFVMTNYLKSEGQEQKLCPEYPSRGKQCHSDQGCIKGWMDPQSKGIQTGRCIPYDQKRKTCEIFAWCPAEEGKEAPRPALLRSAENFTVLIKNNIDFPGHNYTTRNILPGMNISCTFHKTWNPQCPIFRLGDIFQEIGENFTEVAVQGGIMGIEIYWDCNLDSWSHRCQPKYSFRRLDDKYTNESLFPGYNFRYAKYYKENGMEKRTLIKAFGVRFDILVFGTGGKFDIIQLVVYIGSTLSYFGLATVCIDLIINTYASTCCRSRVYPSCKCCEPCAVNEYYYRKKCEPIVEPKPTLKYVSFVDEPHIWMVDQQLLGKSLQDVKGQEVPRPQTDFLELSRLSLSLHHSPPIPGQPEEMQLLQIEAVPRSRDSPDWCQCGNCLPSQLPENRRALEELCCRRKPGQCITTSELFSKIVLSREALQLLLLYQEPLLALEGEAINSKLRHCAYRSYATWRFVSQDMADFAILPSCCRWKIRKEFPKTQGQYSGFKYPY
Nature of the experiment: P2X7 channel calcium-influx assay (Fluo-8, FLIPR TETRA), rat P2X7. To be noted: HEK-293 cells stably transfected with P2X7; Bz-ATP at EC80; low divalent cation buffer; read-out: ratP2X7 (activity range). In a few lines: as §1

For `CCn1nc(Cc2c(F)cccc2Cl)n(CC2CCC(F)(F)C2)c1=O` (stereo not drawn) [Example 65, 5-[(2-chloro-6-fluorophenyl)methyl]-4-[(3,3-difluorocyclopentyl)methyl]-2-ethyl-2,4-dihydro-3H-1,2,4-triazol-3-one], the IC50 was 1000 to 10000 nM on human P2X7 channel, 1000 to 10000 nM on humanP2X7, 10000 to 30000 nM on mouseP2X7 and 200 to 1000 nM at ratP2X7.
In the case of `O=c1n(CC2CC2)nc(Cc2c(F)cccc2Cl)n1CC1CCC(F)(F)C1` (stereo not drawn) [Example 66, 5-[(2-chloro-6-fluorophenyl)methyl]-2-(cyclopropylmethyl)-4-[(3,3-difluorocyclopentyl)methyl]-2,4-dihydro-3H-1,2,4-triazol-3-one], the IC50 at human P2X7 channel was 100 to 1000 nM; on humanP2X7, 200 to 1000 nM; on mouseP2X7, 1000 to 10000 nM; at ratP2X7, less than 200 nM.
In the case of `O=c1n(CC(F)(F)F)nc(Cc2c(F)cccc2Cl)n1CC1CCCCCC1` [Example 67, 5-[(2-chloro-6-fluorophenyl)methyl]-4-(cycloheptylmethyl)-2-(2,2,2-trifluoroethyl)-2,4-dihydro-3H-1,2,4-triazol-3-one], the IC50 on human P2X7 channel was 10 to 100 nM; on humanP2X7, less than 200 nM; on mouseP2X7, less than 200 nM; on ratP2X7, less than 200 nM.
As to `CN1CCCCC1Cn1c(Cc2c(F)cccc2Cl)nn(CC(F)(F)F)c1=O` (stereo not drawn) [Example 68, 5-[(2-chloro-6-fluorophenyl)methyl]-4-[(1-methylpiperidin-2-yl)methyl]-2-(2,2,2-trifluoroethyl)-2,4-dihydro-3H-1,2,4-triazol-3-one], the IC50 lay in the range of 1000 to 10000 nM at human P2X7 channel, 1000 to 10000 nM on humanP2X7, 1000 to 10000 nM at mouseP2X7 and 200 to 1000 nM on ratP2X7.
`O=c1n(CC2CC2)nc(Cc2c(F)cccc2Cl)n1CC1CCC(C(F)(F)F)CC1` (stereo not drawn) [Example 69, 5-(2-chloro-6-fluorobenzyl)-2-(cyclopropylmethyl)-4-((4-(trifluoromethyl)cyclohexyl)methyl)-2,4-dihydro-3H-1,2,4-triazol-3-one]: the IC50 on human P2X7 channel is 10 to 100 nM; at humanP2X7, less than 200 nM; on mouseP2X7, 200 to 1000 nM; on ratP2X7, less than 200 nM.
As for `O=c1n(CC(F)(F)F)nc(CC2CCC(F)(F)CC2)n1Cc1c(F)cccc1Cl` [Example 70, 4-[(2-chloro-6-fluorophenyl)methyl]-5-[(4,4-difluorocyclohexyl)methyl]-2-(2,2,2-trifluoroethyl)-2,4-dihydro-3H-1,2,4-triazol-3-one], the IC50 on human P2X7 channel was 100 to 1000 nM; at humanP2X7, 200 to 1000 nM; at mouseP2X7, 1000 to 10000 nM; on ratP2X7, less than 200 nM.
